# Inconclusive results and toxic doses are left out.
# Test system: P388 leukemia ip, CD2F1 mice, survival T/C
# Test: NCI In Vivo Anticancer Drug Screen. Data for tumor model P388 Leukemia (intraperitoneal) in CD2F1 (CDF1) mice
# Conditions: endpoint: median survival time, higher = longer survival
# Method in brief: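 Mice carrying the transplanted tumor received test compound or vehicle. Survival was recorded in each group, and the value is the treated-group measurement divided by that of the vehicle-treated control group.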
# [1] = dose: 100.0 mg/kg/injection, schedule: Q04DX003 (ip), vehicle: saline with Tween-80
# [2] = dose: 200.0 mg/kg/injection, schedule: Q04DX003 (ip), vehicle: saline with Tween-80
# [3] = dose: 12.5 mg/kg/injection, schedule: Q01DX009 (ip), vehicle: saline
# [4] = dose: 25.0 mg/kg/injection, schedule: Q01DX009 (ip), vehicle: saline
smiles,measurement,setting,value
C=C1C(=O)OC2/C=C(\C)CC/C=C(\C)CC(OC(=O)/C(=C/C)CO)C12 (stereo unspecified),T/C,"dose: 25.0 mg/kg/injection, schedule: Q01DX001 (ip), vehicle: Klucel (hydroxypropylcellulose) (HPC)",101 % of control
same,T/C,"dose: 50.0 mg/kg/injection, schedule: Q01DX001 (ip), vehicle: Klucel (hydroxypropylcellulose) (HPC)",96 % of control
same,T/C,"dose: 100.0 mg/kg/injection, schedule: Q01DX001 (ip), vehicle: Klucel (hydroxypropylcellulose) (HPC)",110 % of control
CCN(CC)S(=O)(=O)c1ccc(-c2cc(Cl)c3cc(S(=O)(=O)F)ccc3n2)cc1,T/C,[1],100 % of control
same,T/C,[2],100 % of control
same,T/C,"dose: 400.0 mg/kg/injection, schedule: Q04DX003 (ip), vehicle: saline with Tween-80",95 % of control
CC(C)(C)N=NNc1ccc(C#N)cc1,T/C,"dose: 100.0 mg/kg/injection, schedule: Q04DX002 (ip), vehicle: saline with Tween-80",87 % of control
same,T/C,"dose: 200.0 mg/kg/injection, schedule: Q04DX002 (ip), vehicle: saline with Tween-80",88 % of control
same,T/C,"dose: 400.0 mg/kg/injection, schedule: Q04DX002 (ip), vehicle: saline with Tween-80",88 % of control
OCC12CCCC(CO)(COC1)C2O (stereo unspecified),T/C,"dose: 25.0 mg/kg/injection, schedule: Q01DX005 (ip), vehicle: saline",105 % of control
same,T/C,"dose: 50.0 mg/kg/injection, schedule: Q01DX005 (ip), vehicle: saline",105 % of control
same,T/C,"dose: 100.0 mg/kg/injection, schedule: Q01DX005 (ip), vehicle: saline",100 % of control
same,T/C,"dose: 200.0 mg/kg/injection, schedule: Q01DX005 (ip), vehicle: saline",115 % of control
C/C=C(/C)C(=O)O[C@@H]1c2c(C)coc2C(=O)[C@@]2(OC(C)=O)CCC[C@@](C)(O)[C@@]12C,T/C,"dose: 3.25 mg/kg/injection, schedule: Q01DX005 (ip), vehicle: saline + alcohol",110 % of control
same,T/C,"dose: 6.5 mg/kg/injection, schedule: Q01DX005 (ip), vehicle: saline + alcohol",96 % of control
same,T/C,"dose: 13.0 mg/kg/injection, schedule: Q01DX005 (ip), vehicle: saline + alcohol",91 % of control
same,T/C,"dose: 26.0 mg/kg/injection, schedule: Q01DX005 (ip), vehicle: saline + alcohol",93 % of control
COc1cc2c(cc1OC)C(Cc1ccccc1[N+](=O)[O-])=NCC2,T/C,"dose: 25.0 mg/kg/injection, schedule: Q04DX003 (ip), vehicle: saline with Tween-80",99 % of control
same,T/C,"dose: 50.0 mg/kg/injection, schedule: Q04DX003 (ip), vehicle: saline with Tween-80",100 % of control
same,T/C,[1],114 % of control
same,T/C,[2],100 % of control
CC(=O)OC(C)CCCCCCCCCCCCCCC1=C(C)C(=O)OC1=O (stereo unspecified),T/C,"dose: 25.0 mg/kg/injection, schedule: Q01DX005 (ip), vehicle: Klucel (hydroxypropylcellulose) (HPC)",99 % of control
same,T/C,"dose: 50.0 mg/kg/injection, schedule: Q01DX005 (ip), vehicle: Klucel (hydroxypropylcellulose) (HPC)",106 % of control
same,T/C,"dose: 100.0 mg/kg/injection, schedule: Q01DX005 (ip), vehicle: Klucel (hydroxypropylcellulose) (HPC)",108 % of control
same,T/C,"dose: 200.0 mg/kg/injection, schedule: Q01DX005 (ip), vehicle: Klucel (hydroxypropylcellulose) (HPC)",105 % of control
same,T/C,"dose: 400.0 mg/kg/injection, schedule: Q01DX005 (ip), vehicle: Klucel (hydroxypropylcellulose) (HPC)",101 % of control
CCN(CC)P(=O)(N1CC1)N1CC1,T/C,"dose: 6.25 mg/kg/injection, schedule: Q01DX009 (ip), vehicle: saline",169 % of control
same,T/C,[3],243 % of control
same,T/C,"dose: 12.5 mg/kg/injection, schedule: Q04DX003 (ip), vehicle: saline",175 % of control
same,T/C,[4],86 % of control
same,T/C,"dose: 25.0 mg/kg/injection, schedule: Q04DX003 (ip), vehicle: saline",245 % of control
CCCCCCCC/C=C\CCCCCCCCN=Cc1c(O)c(O)c(C(C)C)c2cc(C)c(-c3c(C)cc4c(C(C)C)c(O)c(O)c(C=NCCCCCCCC/C=C\CCCCCCCC)c4c3O)c(O)c12,T/C,"dose: 25.0 mg/kg/injection, schedule: Q01DX005 (ip), vehicle: saline + Tween-80 + alcohol",105 % of control
same,T/C,"dose: 50.0 mg/kg/injection, schedule: Q01DX005 (ip), vehicle: saline + Tween-80 + alcohol",105 % of control
same,T/C,"dose: 100.0 mg/kg/injection, schedule: Q01DX005 (ip), vehicle: saline + Tween-80 + alcohol",100 % of control
same,T/C,"dose: 200.0 mg/kg/injection, schedule: Q01DX005 (ip), vehicle: saline + Tween-80 + alcohol",105 % of control
CCOc1ccccc1N=Nc1c(C)nn(C(N)=S)c1OCC,T/C,"dose: 60.0 mg/kg/injection, schedule: Q01DX005 (ip), vehicle: Klucel (hydroxypropylcellulose) (HPC)",106 % of control
same,T/C,"dose: 120.0 mg/kg/injection, schedule: Q01DX005 (ip), vehicle: Klucel (hydroxypropylcellulose) (HPC)",116 % of control
same,T/C,"dose: 240.0 mg/kg/injection, schedule: Q01DX005 (ip), vehicle: Klucel (hydroxypropylcellulose) (HPC)",115 % of control
O=C(CCN1CCCC1)c1ccccc1,T/C,[3],98 % of control
same,T/C,[4],100 % of control
same,T/C,"dose: 50.0 mg/kg/injection, schedule: Q01DX009 (ip), vehicle: saline",100 % of control
